These results are taken from ChEMBL document CHEMBL1201862, “PubChem BioAssay data set” (2004).

Test systems include 786-0; ACHN; EKVX; HOP-92; HT-29; K562; KM12; NCI-H460; NCI-H522; RPMI-8226; SF-295; SK-MEL-2; TK-10; M14; NCI-H226; UACC-62.
What all share (assay): NCI anticancer screen, dose series, 48 h

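The compound was tested at five concentrations on cells cultured in 96-well plates, with a 48-hour exposure period. GI50: concentration for 50% inhibition of growth.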 The source made the active and inactive calls. Rule as the data show it: active = GI50 up to about 1.1 µM and inactive = higher.

Regarding `Clc1ccc(C2=NN(c3ccccc3)C3c4cc(Br)ccc4OCC23)cc1` (centres undefined), the GI50 in the test with 786-0 was > 100 µM (inactive); with ACHN it was > 100 µM (inactive); in the test with EKVX, > 100 µM (inactive); in the test with HOP-92 it was > 100 µM (inactive); in the test on HT-29 it was 66.7 µM (inactive); with K562 it was 33.8 µM (inactive). The GI50 in the test on KM12 was > 100 µM (inactive); in the test on NCI-H460, > 100 µM (inactive); with NCI-H522, > 100 µM (inactive); in the test with RPMI-8226, 11.6 µM (inactive); with SF-295, 86.3 µM (inactive); with SK-MEL-2 it was > 100 µM (inactive). The GI50 with TK-10 is > 100 µM (inactive).
Consider `N#C/C(=C/Sc1ccccc1)C(=O)O`, for which the GI50 in the test on 786-0 is 22.6 µM (inactive); in the test on ACHN, 27.6 µM (inactive); in the test on EKVX, 40.7 µM (inactive); with HOP-92, 57.7 µM (inactive); with HT-29, 24.7 µM (inactive); in the test with K562, 43.1 µM (inactive). Also, the GI50 in the test with KM12 is 19.1 µM (inactive); with M14 it was 22 µM (inactive); in the test on NCI-H226, 23.3 µM (inactive); in the test on NCI-H460, 25.7 µM (inactive); with NCI-H522, 10.9 µM (inactive); in the test on RPMI-8226 it was 24.5 µM (inactive). For the same compound, the GI50 in the test on SF-295 is 37.3 µM (inactive); with SK-MEL-2, 24.7 µM (inactive); in the test on TK-10 it was 38.7 µM (inactive); with UACC-62, 26 µM (inactive).
For `N#CC(NNC(=O)Cc1ccccc1)c1cccc(O)c1` (centres undefined), the GI50 in the test on 786-0, in the test on ACHN, with HOP-92, in the test with HT-29, in the test on K562 and in the test with KM12 was > 100 µM (inactive) throughout. In addition, the GI50 in the test on M14, in the test with NCI-H226, in the test with NCI-H460, in the test with NCI-H522, with RPMI-8226 and in the test with SF-295 was > 100 µM (inactive) each time. Moreover, the GI50 in the test with SK-MEL-2, in the test on TK-10 and with UACC-62 was > 100 µM (inactive) in each case.
Consider `COc1ccc(CC2=NCCc3cc(OC)c(OC)cc32)cc1Br`, for which the GI50 in the test with 786-0 is 5.78 µM (inactive); in the test with ACHN it was 12.9 µM (inactive); with EKVX it was 40.6 µM (inactive); in the test on HOP-92, 0.644 µM (active); in the test on HT-29, 3.18 µM (inactive); in the test on K562, 3.66 µM (inactive). Further, the GI50 is 16.1 µM (inactive) with KM12; 4.38 µM (inactive) with NCI-H226; 6.19 µM (inactive) in the test on NCI-H460; 12 µM (inactive) with NCI-H522; 3.48 µM (inactive) in the test with SF-295; 33.4 µM (inactive) in the test on SK-MEL-2. Further, the results for the GI50 in the test with TK-10 and in the test with UACC-62 were 50 µM (inactive) and 6.67 µM (inactive), respectively.
As to `CCC12CCCC(=O)N1C(CO)C(c1ccccc1)O2` (centres undefined), the GI50 in the test with 786-0, in the test with ACHN, in the test on EKVX, in the test with HOP-92, with HT-29 and in the test with K562 was > 100 µM (inactive) in each case. The GI50 in the test on KM12, in the test with NCI-H460, in the test with RPMI-8226, in the test on SF-295, in the test on SK-MEL-2 and in the test on TK-10 was > 100 µM (inactive) throughout. In addition, in the test on UACC-62, the GI50 is > 100 µM (inactive).
With `O=S1(=O)NN=C(NCc2ccc(Cl)c(Cl)c2)c2ccccc21`, the GI50 in the test with 786-0 was > 100 µM (inactive); in the test with ACHN it was > 100 µM (inactive); in the test on EKVX, > 100 µM (inactive); in the test on HOP-92, 50.1 µM (inactive); in the test with HT-29, 53.8 µM (inactive); in the test with K562, 12 µM (inactive). For the same compound, the GI50 was > 100 µM (inactive) with KM12; > 100 µM (inactive) in the test with M14; > 100 µM (inactive) with NCI-H226; 95.3 µM (inactive) with NCI-H460; 11.5 µM (inactive) in the test with RPMI-8226; > 100 µM (inactive) with SF-295. The GI50 with SK-MEL-2 was > 100 µM (inactive); in the test with UACC-62 it was 6.56 µM (inactive).
Consider `O=C1C(Cl)C(c2ccc([N+](=O)[O-])cc2)N1n1cnc2ccccc2c1=O` (centres undefined), for which the GI50 with 786-0 was 20.7 µM (inactive); in the test with ACHN, 61.5 µM (inactive); in the test on EKVX, 12.7 µM (inactive); with HT-29, > 100 µM (inactive); in the test with K562, 36.9 µM (inactive); in the test on KM12 it was 89.9 µM (inactive). The GI50 with M14 is 32.3 µM (inactive); in the test on NCI-H226, 51.6 µM (inactive); in the test on NCI-H460, 17.2 µM (inactive); in the test on NCI-H522, 49.8 µM (inactive); with RPMI-8226, > 10 µM (inactive); with SF-295, 17.6 µM (inactive). Further, the GI50 is > 100 µM (inactive) with SK-MEL-2, 25.3 µM (inactive) in the test on TK-10 and 70.5 µM (inactive) in the test on UACC-62.
Consider `O=C(Nc1ccc(Cl)cc1Cl)C(=O)C(C(=O)c1ccncc1)C1OC(=O)c2ccccc21` (centres undefined), for which the GI50 in the test on 786-0, in the test on ACHN, in the test with EKVX, with HOP-92, with HT-29 and with K562 was > 100 µM (inactive) throughout. In addition, the GI50 in the test with KM12, in the test with M14, in the test with NCI-H226, in the test on NCI-H460, in the test with NCI-H522 and in the test with RPMI-8226 was > 100 µM (inactive) each time. Also, the GI50 with SF-295, with TK-10 and in the test on UACC-62 was > 100 µM (inactive) throughout.
Take `COc1ccccc1/N=C(\N)N/N=C/c1c[nH]c2ccccc12`: the GI50 in the test on 786-0 was 13.3 µM (inactive); in the test with ACHN, 10.3 µM (inactive); in the test on EKVX, 11 µM (inactive); in the test with HT-29, 4.01 µM (inactive); in the test on K562 it was 2.22 µM (inactive); with KM12, 14.9 µM (inactive). Besides, the GI50 was 3.25 µM (inactive) in the test with M14; 14.4 µM (inactive) in the test on NCI-H226; 8.87 µM (inactive) in the test on NCI-H460; 3.65 µM (inactive) with NCI-H522; 3.13 µM (inactive) in the test with RPMI-8226; 8.97 µM (inactive) with SF-295. Besides, the figures for the GI50 in the test on SK-MEL-2, with TK-10 and in the test with UACC-62 were 6.46 µM (inactive), 16.8 µM (inactive) and 11.5 µM (inactive), respectively.
As for `O=C(N/N=C/c1cc(-c2ccccc2Cl)c(-c2ccccc2Cl)o1)c1ccncc1`, the GI50 in the test on 786-0 was > 100 µM (inactive); in the test with ACHN, > 100 µM (inactive); with EKVX it was > 100 µM (inactive); with HOP-92, > 100 µM (inactive); with HT-29, 80.5 µM (inactive); in the test with K562, > 10 µM (inactive). Further, the GI50 is > 100 µM (inactive) in the test with M14; > 100 µM (inactive) in the test on NCI-H226; 83.6 µM (inactive) in the test with NCI-H522; 23.6 µM (inactive) in the test with RPMI-8226; > 100 µM (inactive) in the test on SF-295; > 100 µM (inactive) with SK-MEL-2. Also, the GI50 in the test on TK-10 and in the test on UACC-62 was > 100 µM (inactive) throughout.
As to `COc1ccc(S(=O)(=O)NC(C)C(=O)O)cc1` (centres undefined), the GI50 in the test with 786-0, in the test with ACHN, with EKVX, in the test with HOP-92, in the test with HT-29 and with K562 was > 100 µM (inactive) in each case. Also, the GI50 in the test on KM12, with M14, in the test with NCI-H460, in the test on NCI-H522, in the test with RPMI-8226 and in the test with SF-295 was > 100 µM (inactive) each time. Moreover, the GI50 with SK-MEL-2, in the test on TK-10 and with UACC-62 was > 100 µM (inactive) in each case.
Take `CC(=O)Nc1ccc(C2CC(c3ccc([N+](=O)[O-])cc3)=Nc3ccccc3[S+]2[O-])cc1` (centres undefined): the GI50 in the test with 786-0 was 9.64 µM (inactive); with ACHN, 20.6 µM (inactive); in the test on EKVX it was 36.5 µM (inactive); in the test on HT-29, 22.6 µM (inactive); in the test with K562 it was 4.58 µM (inactive); in the test on KM12 it was 14.1 µM (inactive). Besides, the GI50 is 27.9 µM (inactive) in the test on M14; 20.4 µM (inactive) with NCI-H226; 23.3 µM (inactive) with NCI-H460; 17.3 µM (inactive) with NCI-H522; 4.36 µM (inactive) in the test with RPMI-8226; 28.8 µM (inactive) with SF-295. Besides, the results for the GI50 in the test on SK-MEL-2, in the test on TK-10 and in the test with UACC-62 were 27.4 µM (inactive), 28.8 µM (inactive) and 11.6 µM (inactive), respectively.
With `CCOc1ccc2c(c1)[n+]([O-])c(-c1ccccc1)c(N)[n+]2[O-]`, the GI50 in the test on 786-0 was > 100 µM (inactive); in the test with ACHN it was 55.1 µM (inactive); in the test on EKVX, 89.1 µM (inactive); in the test with HT-29, > 100 µM (inactive); with K562, 45 µM (inactive); in the test on KM12, 97.3 µM (inactive). Moreover, the GI50 with M14 is 81.5 µM (inactive); in the test with NCI-H226, > 100 µM (inactive); in the test with NCI-H460, 51.6 µM (inactive); in the test on NCI-H522, 16.8 µM (inactive); with RPMI-8226 it was > 100 µM (inactive); in the test on SF-295, > 100 µM (inactive). For the same compound, the results for the GI50 with SK-MEL-2, in the test with TK-10 and in the test on UACC-62 were > 100 µM (inactive), > 100 µM (inactive) and 30.5 µM (inactive), respectively.
`CCCCCCCCCCCCN(O)C(=O)c1ccccc1`: the GI50 in the test with 786-0 is 16.9 µM (inactive); with ACHN, 28.2 µM (inactive); in the test on EKVX, 25.9 µM (inactive); in the test with HOP-92, 17.7 µM (inactive); in the test on HT-29, 39.4 µM (inactive); in the test with K562, 18.9 µM (inactive). The GI50 with KM12 is 38 µM (inactive); with M14, 21.2 µM (inactive); with NCI-H460, > 10 µM (inactive); in the test with NCI-H522, 25.6 µM (inactive); in the test on RPMI-8226, 15.1 µM (inactive); in the test with SF-295 it was 29.4 µM (inactive). Also, the GI50 with SK-MEL-2 was 47 µM (inactive); in the test with TK-10 it was 46.5 µM (inactive); in the test on UACC-62, 19.7 µM (inactive).
